Reference: patent US20100247564A1, “METHODS AND COMPOSITIONS FOR THE USE OF SARGASSUM FUSIFORME FOR THE INHIBITION OF HIV-1 INFECTION” (priority 2007, published 2010)
“Also recorded” adds a separate entry of the source. Where two headings read alike, the source gives them in different places.

Legend:
[1] = molecular target: T1, sCD4 (Homo sapiens, UniProt P01730); test: Saturation transfer difference NMR (STD-NMR) binding to sCD4; conditions: NMR buffer with 20% d6-DMSO, room temperature
T1 construct: soluble CD4 (sCD4) protein; purchased Progenics Pharmaceuticals
Protocol: FIGS. 15A-E show in vitro binding experiments of sCD4 with PA. FIG. 15A is a homonuclear NMR spectrum of 100 μM PA in the NMR buffer (10 mM KPO4 buffer, pH 7.0, 20% d6-DMSO, and 80% D2O). […] Tryptophan fluorescence was measured using an excitation wavelength of 280 nm. An increase of PA causes a red shift of 2 nm and quenching of the tryptophan fluorescence of sCD4.
We used a one-dimensional saturation transfer difference NMR (STD-NMR) experiment to characterize the binding of PA to sCD4 in vitro. […]
To perform the STD-NMR experiment, we used commercially available sCD4 (200 μg, 4.4 nmol, Progenics Pharmaceuticals), which was exchanged into the NMR buffer (160 μl of D2O and 40 μl d6-DMSO, containing 10 mM KPO4 buffer, pH 7.0). […] The NMR data were processed and analyzed using Topspin 2.0 (Bruker).
During the STD-NMR experiment, we titrated increasing concentrations of PA into sCD4 solution, and observed PA binding to sCD4, as shown by an increase in the intensity of the ligand STD-NMR signal (FIGS. 15A and 15B). The intensity of the STD signal was quantified by calculating the difference between the intensity of one signal in the off-resonance NMR spectrum, or reference NMR spectrum (I0), and the intensity of a signal in the on-resonance NMR spectrum (Isat) for various concentrations of the ligand (FIG. 15C). […]

[2] = test system: BlaM-Vpr-X4-tropic NL4-3; test: microbe, parasite or virus in culture; assay type: cell-based, HIV-1; conditions: for virus-positive cells: 37.6% untreated
[3] = test system: R5-tropic 81A; test: GHOST X4/R5 cell infection with R5-tropic 81A, flow cytometry; assay type: cell-based, HIV-1; conditions: for infected cells: 52.5% at 0 μM
[4] = test system: ectocervix tissue; test: Ectocervix tissue viability, MTT assay; assay type: cell-based, human; conditions: day 10 after infection, PA-treated compared to untreated tissue
[5] = test system: cell fusion (anti-HIV activity); test: Inhibition of cell fusion by individual fatty acids; assay type: cell-based; conditions: Human immunodeficiency virus 1, read-out: percentage of inhibition of cell fusion
Protocol: Anti-HIV activity of the individual fatty acids was tested at four different concentrations. The values given in Table 1 represent the percentage of inhibition of cell fusion in the presence of each fatty acid.

[6] = test system: R5-tropic primary isolate ADA
[7] = molecular target: T1, sCD4; test: sCD4 tryptophan fluorescence titration; assay type: binding
Protocol: The tryptophan fluorescence of sCD4 was used to estimate binding affinity of PA to sCD4. Measurements were performed on a Fluorolog-3 fluorescence spectrophotometer (Horiba Jobin Yvon) at 25° in a 1-ml stirred cuvette. For fluorescence titration experiments, 2 μM of sCD4 (Progenics Pharmaceuticals) dissolved in the NMR buffer was used, and a 1 mM solution of PA dissolved in the NMR buffer was added in 1 μM steps. Titrations in the absence of sCD4 were performed as a reference. Tryptophan fluorescence was measured using an excitation wavelength of 290 nm. The fluorescence emission signal was subtracted from the signal of the reference titrations, and the differences adjusted by the dilution factor were plotted against the final concentration of added PA. Curve fitting (OriginLab) was performed to find the best values for the Kd using a single-site binding isotherm approximation.

[8] = test system: X4-tropic NL4-3
[9] = test system: uninfected PBMCs; test: Toxicity (LD50) on uninfected PBMCs; assay type: cell-based, human
[10] = test system: X4-tropic NL4-3; test: GHOST X4/R5 cell infection with X4-tropic NL4-3, flow cytometry; assay type: cell-based, HIV-1; conditions: for infected cells: 20% at 0 μM
[11] = test system: uninfected macrophages; test: Toxicity (LD50) on uninfected macrophages; assay type: cell-based, human
[12] = test system: NL4-3; test: MAGI cell assay with sCD4; assay type: cell-based, HIV-1; conditions: increasing concentrations of PA with 200 nM sCD4
[13] = test system: HIV-1 R5 BaL; test: HIV-1 BaL infection of human ectocervix tissue ex vivo, p24 ELISA; conditions: for HIV-1 replication (p24): 100 μM PA; for HIV-1 infection reduced: 200 μM PA; for inhibition at 100 µM: Human immunodeficiency virus 1, BAL, in Homo sapiens, read-out: inhibition of HIV-1 infection
Protocol: Ectocervix tissue samples from premenopausal women were directly cultured in a non-polarized manner in 48-well plates in 300 μl/well DMEM/F 12 media for 10 days. […] Tissue was washed 3 times and returned to culture with each respective treatment for the duration of the experiment. At the indicated time points, HIV-1 replication was tested by p24 ELISA, and a two-tailed Student's t-test with p<0.05 was used to calculate statistical significance.
Ectocervix tissue samples (3-mm^3 biopsy) from premenopausal women with conditions not involving cervix were obtained in accordance with AMC approved Institutional Review Board (IRB) protocol, and were processed within 1-3 hours after surgery. Tissue was cultured in a non-polarized manner in 48-well plates in 300 μl/well DMEM/F12 media (Invitrogen) supplemented with 10% FBS for the duration of the experiment. Tissue was treated with the indicated concentrations of PA and infected with HIV-1 R5 BaL at 0.3 MOI.
Before infection, cells or cervix tissue were incubated for the indicated time in culture media with different concentrations of either PA. Cells or tissue were then washed 3 times with HBSS (Invitrogen), and infected with HIV-1 at the indicated MOI. Infected cells or tissue were washed 3 times, and returned to culture with the same concentration of each treatment for the duration of experiment. Infection was monitored in cell-free supernatants by HIV-1 p24 core antigen content accumulation by enzyme-linked immunosorbent assay (ELISA) using an HIV-1 Ag kit, as specified by the manufacturer.

[14] = Human immunodeficiency virus 1, NL43, SUP-T1, read-out: inhibition of HIV-1 fusion
[15] = Human immunodeficiency virus 1, read-out: inhibition of infection (R5)
[16] = saturating concentrations of PA

CCCCCCCCCCCCCCCC(=O)O [PA, palmitic acid]
STD-NMR signal on titration into sCD4 solution [1]: binds to sCD4 specifically | virus-positive cells ([2]; 2 μM PA): 24.6% | virus-positive cells ([2]; 4 μM PA): 19.7% | virus-positive cells ([2]; 8 μM PA): 14.4% | inhibition at 2 µM [2, 14]: 34.6% | inhibition at 4 µM [2, 14]: 47.8% | inhibition at 8 µM [2, 14]: 61.6% | infected cells ([3]; 10 μM PA): 44.77% | infected cells ([3]; 20 μM PA): 36.06% | infected cells ([3]; 40 μM PA): 29.88% | infected cells ([3]; 60 μM PA): 22.88% | infected cells ([3]; 100 μM PA): 14.45% | inhibition at 10 µM [3, 15]: 15% | inhibition at 20 µM [3, 15]: 31% | inhibition at 40 µM [3, 15]: 43% | inhibition at 60 µM [3, 15]: 56% | inhibition at 100 µM [3, 15]: 73% | IC50 ([3]; Human immunodeficiency virus 1, read-out: mean inhibitory concentration (IC50) for R5 inhibition): 51 µM | tissue toxicity (MTT viability assay) [4]: not toxic to tissue; also recorded: absence of toxicity | inhibition at 0.5 µg/mL ([5]; 0.5 μg/ml): 33.5% | inhibition at 1 µg/mL ([5]; 1 μg/ml): 46.1% | inhibition at 2 µg/mL ([5]; 2 μg/ml): 64.2% | inhibition at 5 µg/mL ([5]; 5 μg/ml): 50.6% | IC50 ([6]; Human immunodeficiency virus 1, Macrophage): ~37 µM | inhibition of primary isolate ADA infection ([6]; up to 100 μM PA, day 10 (peak of replication)): 91% | Kd [7]: 1.5 ± 0.2 µM | quenching of the sCD4 tryptophan fluorescence [7, 16]: 30% | red shift of the emission peak [7, 16]: 2 nm | IC50 ([8]; Human immunodeficiency virus 1, NL43, PBMC, 144 h): ~0.9 µM | inhibition of virus replication ([8]; up to 22 μM PA, day 6 (peak of infection)): 95% | mean toxicity lethal dose (LD50) [9]: ≈ 154 μM | infected cells ([10]; 10 μM PA): 17.46% | infected cells ([10]; 20 μM PA): 15.25% | infected cells ([10]; 40 μM PA): 12.03% | infected cells ([10]; 60 μM PA): 9.62% | infected cells ([10]; 100 μM PA): 5.9% | IC50 ([10]; Human immunodeficiency virus 1, NL43, read-out: mean inhibitory concentration (IC50) for X4 inhibition): ~56 µM | inhibition at 10 µM ([10]; Human immunodeficiency virus 1, NL43, 10 μM PA): 13% | inhibition at 20 µM ([10]; Human immunodeficiency virus 1, NL43, 20 μM PA): 24% | inhibition at 40 µM ([10]; Human immunodeficiency virus 1, NL43, 40 μM PA): 40% | inhibition at 60 µM ([10]; Human immunodeficiency virus 1, NL43, 60 μM PA): 52% | inhibition at 100 µM ([10]; Human immunodeficiency virus 1, NL43, 100 μM PA): 70% | LD50 [11]: 400 µM | reversal of sCD4 inhibition of infection [12]: completely reversed | HIV-1 replication (p24) ([13]; day 4, untreated 943): 604 pg p24/ml | HIV-1 replication (p24) ([13]; day 7, untreated 1421): 960 pg p24/ml | HIV-1 replication (p24) ([13]; day 10, untreated 785): 452 pg p24/ml | HIV-1 infection reduced ([13]; day 4): 38% | HIV-1 infection reduced ([13]; day 10): 43% | inhibition at 100 µM ([13]; 96 h): 36% | inhibition at 100 µM ([13]; 168 h): 32% | inhibition at 100 µM ([13]; 240 h): 42%
